Assay [1] addresses T1, Protein cereblon/Poly [ADP-ribose] polymerase 1 (Homo sapiens, UniProt P09874+Q96SW2). The experiment in a line: PROTAC activity at CRBN/PARP1 in human L02 cells assessed as induction of PARP1 degradation incubated for 24 hrs by western blot analysis. The assay is classed as cell-based.
Target sequence in this assay (P09874 whole entry): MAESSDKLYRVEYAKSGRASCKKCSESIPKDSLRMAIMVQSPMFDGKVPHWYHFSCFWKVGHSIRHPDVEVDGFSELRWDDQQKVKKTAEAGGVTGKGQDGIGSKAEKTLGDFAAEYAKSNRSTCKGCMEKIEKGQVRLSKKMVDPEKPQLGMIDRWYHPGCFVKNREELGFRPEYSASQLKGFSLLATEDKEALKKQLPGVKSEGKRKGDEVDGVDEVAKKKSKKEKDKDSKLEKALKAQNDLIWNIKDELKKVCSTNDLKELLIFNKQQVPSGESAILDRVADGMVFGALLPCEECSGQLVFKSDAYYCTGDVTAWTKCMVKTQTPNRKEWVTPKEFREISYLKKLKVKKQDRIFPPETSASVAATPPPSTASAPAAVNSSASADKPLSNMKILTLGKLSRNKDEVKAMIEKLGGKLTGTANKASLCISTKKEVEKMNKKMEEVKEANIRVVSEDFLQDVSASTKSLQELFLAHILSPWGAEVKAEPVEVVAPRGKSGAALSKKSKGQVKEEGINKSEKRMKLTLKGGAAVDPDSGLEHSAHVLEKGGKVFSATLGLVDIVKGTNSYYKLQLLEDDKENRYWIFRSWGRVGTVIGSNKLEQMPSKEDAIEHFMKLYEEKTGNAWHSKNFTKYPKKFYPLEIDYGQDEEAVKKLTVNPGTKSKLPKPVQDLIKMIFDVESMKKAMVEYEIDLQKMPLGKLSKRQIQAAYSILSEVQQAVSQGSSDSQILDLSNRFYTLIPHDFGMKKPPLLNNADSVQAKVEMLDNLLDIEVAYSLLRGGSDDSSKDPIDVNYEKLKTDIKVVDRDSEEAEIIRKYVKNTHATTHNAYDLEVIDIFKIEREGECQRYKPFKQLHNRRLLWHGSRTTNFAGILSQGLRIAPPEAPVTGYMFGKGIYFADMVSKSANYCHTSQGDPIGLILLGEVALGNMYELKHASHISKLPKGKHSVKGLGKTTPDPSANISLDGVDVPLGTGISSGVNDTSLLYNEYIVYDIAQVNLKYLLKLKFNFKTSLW
Target sequence in this assay (Q96SW2 whole entry): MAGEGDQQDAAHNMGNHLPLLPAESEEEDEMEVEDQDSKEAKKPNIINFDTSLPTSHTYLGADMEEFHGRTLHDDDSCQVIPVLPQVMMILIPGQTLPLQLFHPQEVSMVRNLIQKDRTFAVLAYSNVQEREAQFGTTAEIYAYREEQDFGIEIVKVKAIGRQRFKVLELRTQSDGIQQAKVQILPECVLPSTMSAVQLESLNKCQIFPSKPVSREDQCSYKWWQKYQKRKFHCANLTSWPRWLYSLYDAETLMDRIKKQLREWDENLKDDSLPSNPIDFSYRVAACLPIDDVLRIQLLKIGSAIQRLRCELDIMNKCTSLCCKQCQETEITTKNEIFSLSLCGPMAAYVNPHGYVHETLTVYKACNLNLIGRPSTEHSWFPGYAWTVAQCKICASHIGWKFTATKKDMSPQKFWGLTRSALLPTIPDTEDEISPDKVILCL
Assay [2] deals with T1, Protein cereblon/Poly [ADP-ribose] polymerase 1. The assay can be described thus: PROTAC activity at CRBN/PARP1 in human MDA-MB-231 cells assessed as induction of PARP1 degradation at 1 uM incubated for 24 hrs by western blot analysis. The assay is classed as cell-based. (In general: A western blot detects proteins with antibodies after separation by electrophoresis.)
Target sequence in this assay (P09874 2-1014 limits assumed): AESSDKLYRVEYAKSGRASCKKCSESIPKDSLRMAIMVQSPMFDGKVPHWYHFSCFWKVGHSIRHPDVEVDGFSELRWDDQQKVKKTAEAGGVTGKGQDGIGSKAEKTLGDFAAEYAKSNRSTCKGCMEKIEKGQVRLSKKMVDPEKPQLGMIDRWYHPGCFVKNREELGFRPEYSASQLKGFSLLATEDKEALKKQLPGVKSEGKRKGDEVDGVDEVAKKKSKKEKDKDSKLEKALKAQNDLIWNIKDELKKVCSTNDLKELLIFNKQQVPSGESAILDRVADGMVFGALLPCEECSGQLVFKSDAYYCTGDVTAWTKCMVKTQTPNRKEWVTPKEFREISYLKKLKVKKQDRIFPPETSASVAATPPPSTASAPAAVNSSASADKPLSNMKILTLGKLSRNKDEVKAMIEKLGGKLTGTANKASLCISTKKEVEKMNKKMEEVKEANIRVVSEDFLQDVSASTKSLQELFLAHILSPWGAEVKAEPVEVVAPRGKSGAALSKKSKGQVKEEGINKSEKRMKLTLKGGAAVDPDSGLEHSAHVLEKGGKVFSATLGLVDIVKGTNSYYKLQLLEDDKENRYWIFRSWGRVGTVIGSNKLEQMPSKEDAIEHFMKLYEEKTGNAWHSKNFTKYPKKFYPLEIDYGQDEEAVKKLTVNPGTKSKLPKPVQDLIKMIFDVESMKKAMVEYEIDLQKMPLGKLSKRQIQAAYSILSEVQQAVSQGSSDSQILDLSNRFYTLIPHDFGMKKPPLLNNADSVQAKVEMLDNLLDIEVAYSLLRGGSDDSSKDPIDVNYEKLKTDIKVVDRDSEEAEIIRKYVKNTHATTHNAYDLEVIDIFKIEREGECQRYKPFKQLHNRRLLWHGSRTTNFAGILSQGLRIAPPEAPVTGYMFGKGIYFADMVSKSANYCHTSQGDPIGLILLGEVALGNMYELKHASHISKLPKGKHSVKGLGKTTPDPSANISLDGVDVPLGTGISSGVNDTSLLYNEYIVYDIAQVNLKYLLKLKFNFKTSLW
Target sequence in this assay (Q96SW2 whole entry partner): as the sequence (Q96SW2 whole entry) above
Assay [3] has as its system MDA-MB-231. The experiment in a line: Antiproliferative activity against human MDA-MB-231 cells assessed as cell growth inhibition incubated for 5 days by MTT assay. The assay is classed as functional, cell-based. As to conditions: MDA-MB-231, 120 h. On the technique in general: Tetrazolium dyes change colour on reduction, which living cells bring about.
The test system of a further assay is MDA-MB-468. The experiment in a line: Antiproliferative activity against human MDA-MB-468 cells assessed as cell growth inhibition incubated for 5 days by MTT assay. The assay is classed as functional, cell-based. Particulars: MDA-MB-468, 120 h.
The subject of the next assay is MDA-MB-436. The assay can be described thus: Antiproliferative activity against human MDA-MB-436 cells assessed as cell growth inhibition incubated for 5 days by MTT assay. The assay is classed as functional, cell-based. Particulars: MDA-MB-436, 120 h.
A further assay deals with CAPAN-1. The experiment in a line: Antiproliferative activity against human CAPAN-1 cells assessed as cell growth inhibition incubated for 5 days by MTT assay. The assay is classed as functional, cell-based. Particulars: CAPAN-1, 120 h.
The target in assay [4] is T1, Protein cereblon/Poly [ADP-ribose] polymerase 1. The experiment in a line: PROTAC activity at CRBN/PARP1 in human MDA-MB-231 cells assessed as induction of PARP1 degradation at 0.12 to 4 uM incubated for 24 hrs by western blot analysis. Particulars: dose 0.12-4 µM, DDE = dose-dependent effect. The assay is classed as cell-based.
Target sequence in this assay (P09874 2-1014 limits assumed): as the sequence (P09874 2-1014 limits assumed) above
Target sequence in this assay (Q96SW2 whole entry partner): as the sequence (Q96SW2 whole entry) above
The test system of assay [5] is MDA-MB-231. The assay can be described thus: Induction of cell cycle arrest in human MDA-MB-231 cells assessed as accumulation at G2/M phase at 5 uM incubated for 24 hrs by propidium iodide staining based flow cytometry analysis (reference value: 27.14 %). The assay is classed as functional.
Assay [6] relates to MDA-MB-231. The experiment in a line: Induction of cell cycle arrest in human MDA-MB-231 cells assessed as accumulation at G2/M phase at 2.5 uM incubated for 24 hrs by propidium iodide staining based flow cytometry analysis (reference value: 27.14 %). The assay is classed as functional. (In general: A flow cytometer gives signals particle by particle.)
For assay [7], the system named is MDA-MB-231. The experiment in a line: Induction of cell cycle arrest in human MDA-MB-231 cells assessed as accumulation at S phase at 0.625 uM incubated for 24 hrs by propidium iodide staining based flow cytometry analysis (reference value: 37.88 %). The assay is classed as functional.
Assay [8] relates to MDA-MB-231. The assay can be described thus: Induction of cell cycle arrest in human MDA-MB-231 cells assessed as accumulation at G2/M phase at 0.625 uM incubated for 24 hrs by propidium iodide staining based flow cytometry analysis (reference value: 27.14 %). The assay is classed as functional.
The test system of assay [9] is MDA-MB-231. The assay can be described thus: Induction of cell cycle arrest in human MDA-MB-231 cells assessed as accumulation at G2/M phase at 0.312 uM incubated for 24 hrs by propidium iodide staining based flow cytometry analysis (reference value: 27.14 %). The assay is classed as functional.
The subject of assay [10] is MDA-MB-231. The experiment in a line: Induction of cell cycle arrest in human MDA-MB-231 cells assessed as accumulation at G2/M phase at 1.25 uM incubated for 24 hrs by propidium iodide staining based flow cytometry analysis (reference value: 27.14 %). The assay is classed as functional.
Assay [11] deals with MDA-MB-231. The experiment in a line: Induction of cell cycle arrest in human MDA-MB-231 cells assessed as accumulation at S phase at 2.5 uM incubated for 24 hrs by propidium iodide staining based flow cytometry analysis (reference value: 37.88 %). The assay is classed as functional.
Assay [12] deals with MDA-MB-231. The experiment in a line: Induction of cell cycle arrest in human MDA-MB-231 cells assessed as accumulation at G0/G1 phase at 0.312 uM incubated for 24 hrs by propidium iodide staining based flow cytometry analysis (reference value: 32.62 %). The assay is classed as functional.
The test system of assay [13] is MDA-MB-231. The experiment in a line: Induction of cell cycle arrest in human MDA-MB-231 cells assessed as accumulation at G0/G1 phase at 5 uM incubated for 24 hrs by propidium iodide staining based flow cytometry analysis (reference value: 32.62 %). The assay is classed as functional.
The subject of assay [14] is MDA-MB-231. The experiment in a line: Induction of cell cycle arrest in human MDA-MB-231 cells assessed as accumulation at G0/G1 phase at 2.5 uM incubated for 24 hrs by propidium iodide staining based flow cytometry analysis (reference value: 32.62 %). The assay is classed as functional.
Assay [15] concerns MDA-MB-231. The experiment in a line: Induction of cell cycle arrest in human MDA-MB-231 cells assessed as accumulation at S phase at 0.312 uM incubated for 24 hrs by propidium iodide staining based flow cytometry analysis (reference value: 37.88 %). The assay is classed as functional.
Assay [16] relates to MDA-MB-231. The experiment in a line: Induction of cell cycle arrest in human MDA-MB-231 cells assessed as accumulation at G0/G1 phase at 0.625 uM incubated for 24 hrs by propidium iodide staining based flow cytometry analysis (reference value: 32.62 %). The assay is classed as functional.
Assay [17] relates to MDA-MB-231. The assay can be described thus: Induction of cell cycle arrest in human MDA-MB-231 cells assessed as accumulation at G0/G1 phase at 1.25 uM incubated for 24 hrs by propidium iodide staining based flow cytometry analysis (reference value: 32.62 %). The assay is classed as functional.
For assay [18], the system named is MDA-MB-231. The experiment in a line: Induction of cell cycle arrest in human MDA-MB-231 cells assessed as accumulation at S phase at 1.25 uM incubated for 24 hrs by propidium iodide staining based flow cytometry analysis (reference value: 37.88 %). The assay is classed as functional.
For assay [19], the system named is MDA-MB-231. The experiment in a line: Induction of cell cycle arrest in human MDA-MB-231 cells assessed as accumulation at S phase at 5 uM incubated for 24 hrs by propidium iodide staining based flow cytometry analysis (reference value: 37.88 %). The assay is classed as functional.

Among the data in ChEMBL document CHEMBL5113469, “Synthesis and biological evaluation of a tumor-selective degrader of PARP1” (Bioorg Med Chem, 2022) are DC50, Activity and IC50 values, retold here.

SMILES strings stand for the structures. Calls of active or inactive are those of the source. The rule behind the calls is not given here.

What is called DC50 is the concentration giving 50% degradation. Consider `O=C(CCCCCCCCCCC(=O)N1CCN(C(=O)c2cc(Cc3n[nH]c(=O)c4ccccc34)ccc2F)CC1)NCCNc1cccc2c1C(=O)N(C1CCC(=O)NC1=O)C2=O` (stereo unspecified), for which the half-maximal degradation concentration (DC50) in assay [1] amounted to 0.00289 µM.
The IC50 is the concentration needed to halve the response being measured. For the compound `O=C1CCC(N2C(=O)c3cccc(NC(=O)CNCCCCCCCCC(=O)N4CCN(C(=O)c5cc(Cc6n[nH]c(=O)c7ccccc67)ccc5F)CC4)c3C2=O)C(=O)N1` (stereo unspecified), the result in assay [2] was Active. Moreover, the IC50 was 7.54 µM in the assay on MDA-MB-231 [3], 6.08 µM in the assay with MDA-MB-468, 0.21 µM in the assay on MDA-MB-436 and 0.59 µM with CAPAN-1.
For `O=C1CCC(N2C(=O)c3cccc(NC(=O)CNCCCCC(=O)N4CCN(C(=O)c5cc(Cc6n[nH]c(=O)c7ccccc67)ccc5F)CC4)c3C2=O)C(=O)N1` (stereo unspecified), the IC50 in the assay on MDA-MB-231 [3] was greater than 20 µM; in the assay with MDA-MB-468 it was greater than 20 µM; in the assay with MDA-MB-436 it was 5.82 µM; in the assay on CAPAN-1 it was 6.53 µM.
Take `O=C1CCC(N2C(=O)c3cccc(NC(=O)CNCCCCCCCCCCCC(=O)N4CCN(C(=O)c5cc(Cc6n[nH]c(=O)c7ccccc67)ccc5F)CC4)c3C2=O)C(=O)N1` (stereo unspecified): the IC50 was 4.13 µM in the assay with MDA-MB-231 [3], 3.11 µM with MDA-MB-468, 0.034 µM with MDA-MB-436 and 0.065 µM in the assay with CAPAN-1.
For `O=C1CCC(N2C(=O)c3cccc(NC(=O)CNCCCCCC(=O)N4CCN(C(=O)c5cc(Cc6n[nH]c(=O)c7ccccc67)ccc5F)CC4)c3C2=O)C(=O)N1` (stereo unspecified) the same measures were greater than 20 µM, greater than 20 µM, 4.28 µM and 4.95 µM.
On to `CN1C(=O)CCC(N2C(=O)c3cccc(NC(=O)CNCCCCCCCCCCC(=O)N4CCN(C(=O)c5cc(Cc6n[nH]c(=O)c7ccccc67)ccc5F)CC4)c3C2=O)C1=O` (stereo unspecified), for which, in assay [4], the Activity result was “Dde”. For the same compound, the IC50 in the assay on MDA-MB-231 [3] came out at 4.58 µM; with MDA-MB-468 it was 4.07 µM; in the assay with MDA-MB-436, 0.053 µM; in the assay with CAPAN-1, 0.16 µM.
In the case of `O=C(c1cc(Cc2n[nH]c(=O)c3ccccc23)ccc1F)N1CCN(C(=O)C2CC2)CC1` [OLAPARIB], the Activity with MDA-MB-231 [5] stood at 39.58%; in the assay on MDA-MB-231 [6], 37.91%; with MDA-MB-231 [7], 33.33%; in the assay on MDA-MB-231 [8], 31.86%; in the assay on MDA-MB-231 [9], 26.17%; with MDA-MB-231 [10], 34.71%. In addition, the Activity in the assay with MDA-MB-231 [11] is reported as 38.31%; with MDA-MB-231 [12] it was 35.88%; with MDA-MB-231 [13] it was 23.6%; with MDA-MB-231 [14], 28.07%; with MDA-MB-231 [15], 46.21%; with MDA-MB-231 [16], 33.68%. Moreover, the Activity in the assay on MDA-MB-231 [17] was 29.71%; in the assay on MDA-MB-231 [18], 33.8%; in the assay on MDA-MB-231 [19] it was 37.59%. Further, the IC50 in the assay on MDA-MB-468 came to 4.19 µM; with MDA-MB-436, 0.02 µM; in the assay with CAPAN-1, 0.053 µM.
